From patent publication US4181717A, “Ovulation enhancing peptides” (Research Corporation, priority 1978, dated 1980)
Residues, ends and D or L forms follow the SMILES beside them.

Tested on: hamsters
Test: Ovulation enhancement study in hamsters (ova count after 4 days of subcutaneous dosing)
Type: in vivo
Conditions: ova counted on fifth day, untreated control mean 11.3
Method: In one study carried out with hamsters utilizing H--Thr--Arg--Lys--Arg--OH diacetate, each of six animals was injected subcutaneously at various dosage levels as indicated in the Table for each of the four days of the estrous cycle. On the fifth day, the animals were sacrificed, the left and right ovaries and oviducts of each animal collected, sectioned, stained, and the ova counted. The figures given in the second column are the mean numbers of ova for six animals at each dosage level. In a control group of 20 animals which were not treated with the ovulation enhancing compound, the mean number of ova counted under similar conditions was 11.3.

With `C[C@@H](O)[C@H](N)C(=O)N[C@@H](CCCNC(=N)N)C(=O)N[C@@H](CCCCN)C(=O)N[C@@H](CCCNC(=N)N)C(=O)O` [H--Thr--Arg--Lys--Arg--OH diacetate, H--Thr--Arg--Lys--Arg--OH] (H-TRKR-OH) as the molecule, how does the “Number of OVA (mean number of ova for six animals)” value (“Number of OVA” below) (0.10 μgm/100 gm/day on each of the four days of the estrous cycle) read?
The value was 13.7.

What about the “Number of OVA” value (0.30 μgm/100 gm/day on each of the four days of the estrous cycle) of the same molecule?
Its value is 14.1.

What about the “Number of OVA” value (3.00 μgm/100 gm/day on each of the four days of the estrous cycle) of the same molecule?
The value was 15.5.

What about the “Number of OVA” value (30.00 μgm/100 gm/day on each of the four days of the estrous cycle) of the same molecule?
The value was 15.6.
